The target of the assay is T1, purified catalytic domain of recombinant human TACE (rhTACEc) (Homo sapiens, UniProt P78536, N452Q/S266A).
T1 construct: Residue 215 to 477 with two mutation (S266A and N452Q) and a 6×His tail; 6xHis (C); made in house; host or cells: baculovirus/Hi5 insect cells
As to the kind of experiment: TACE kinetic assay: cleavage of internally quenched peptide substrate SPDL-3, fluorescence. The class given is biochemical. To be noted: TACE inhibitory activity, class symbols; read-out: Ki. As for the experimental part: TACE activity is determined by a kinetic assay measuring the rate of increase in fluorescent intensity generated by TACE catalyzed cleavage of an internally quenched peptide substrate (SPDL-3). […] It is purified from the baculovirus/Hi5 cells expression system using affinity chromatography. […] MCA is (7-Methoxycoumarin-4-yl)acetyl. Dpa is N-3-(2,4-Dinitrophenyl)-L-2,3-diaminopropionyl.
A 50 μl assay mixture contains 20 mM HEPES, pH 7.3, 5 mM CaCl2, 100 μM ZnCl2, 2% DMSO, 0.04% Methylcellulose, 30 μM SPDL-3, 70 pM rhTACEc and a test compound. RhTACEc is pre-incubated with the testing compound for 90 min. at 25° C. Reaction is started by addition of the substrate. […] Rate of enzymatic reaction is shown as Units per second. Effect of a test compound is shown as % of TACE activity in the absence of the compound.

T1 sequence (P78536 215-477 S266A/N452Q): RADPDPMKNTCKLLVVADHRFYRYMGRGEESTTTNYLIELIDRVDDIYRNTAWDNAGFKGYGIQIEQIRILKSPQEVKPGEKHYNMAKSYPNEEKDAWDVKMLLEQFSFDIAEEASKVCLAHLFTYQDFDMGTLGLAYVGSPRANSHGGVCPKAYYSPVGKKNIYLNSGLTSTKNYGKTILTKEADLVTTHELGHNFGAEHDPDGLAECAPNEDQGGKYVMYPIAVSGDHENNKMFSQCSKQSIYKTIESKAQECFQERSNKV

Turning to `O=C(NCC1CCN(c2ccccc2OCCC2CCCCC2)CC1)[C@H](O)[C@@H](O)C(=O)N1CCCC1` [Compound 2158], the Ki is 20 to 100 nM.

As for `O=C(NCC1CCN(c2ccc(F)cc2OCCC2CCCCC2)CC1)[C@H](O)[C@@H](O)C(=O)N1CCCC1` [Compound 2159], the inhibitory constant (Ki) was in the range of 20 to 100 nM.

Turning to `CC1(C)c2ccccc2CN1C(=O)[C@H](O)[C@@H](O)C(=O)NCC1CCN(c2ccccc2C#N)CC1` [Compound 2233], the Ki was less than 20 nM.

`C[C@@H](NC(=O)[C@H](O)[C@@H](O)C(=O)N1CCCC1(C)c1ccccc1)c1ccc(-n2cccn2)cc1` (stereo partly drawn) [Compound 2235]: the inhibitory constant (Ki) is less than 20 nM.

Consider `C[C@@H](NC(=O)[C@](C)(O)[C@@H](O)C(=O)N1CCCC1(C)c1cccc(Cl)c1)c1ccc(-n2cccn2)cc1` (stereo partly drawn) [Compound 2236], for which the inhibition constant Ki is greater than 1000 nM.

As for `C[C@@H](NC(=O)[C@H](O)[C@@H](O)C(=O)N1CC(C)(C)CC1c1cccc(Cl)c1)c1ccc(-n2cccn2)cc1` (stereo partly drawn) [Compound 2237], the Ki was in the range of 100 to 1000 nM.

For the compound `C[C@@H](NC(=O)[C@H](O)[C@@H](O)C(=O)N1CC(C)(C)CC1(C)c1cccc(Cl)c1)c1ccc(-n2cccn2)cc1` (stereo partly drawn) [Compound 2238], the inhibition constant Ki lay within 20 to 100 nM.

On to `C[C@@H](NC(=O)[C@H](O)[C@@H](O)C(=O)N1CC(C)(C)C[C@@]1(C)c1cccc(Cl)c1)c1ccc(-n2cccn2)cc1` [Compound 2239], for which the Ki is greater than 1000 nM.

Take `C[C@@H](NC(=O)[C@H](O)[C@@H](O)C(=O)N1CC(C)(C)C[C@]1(C)c1cccc(Cl)c1)c1ccc(-n2cccn2)cc1` [Compound 2240]: the Ki fell in the range of 20 to 100 nM.

As to `C[C@@H](NC(=O)[C@H](O)[C@@H](O)C(=O)N1CC(C)(C)CC1(C)c1nccs1)c1ccc(-n2cccn2)cc1` (stereo partly drawn) [Compound 2241], the Ki was 100 to 1000 nM.

Take `C[C@@H](NC(=O)[C@H](O)[C@@H](O)C(=O)N1CCC[C@@H]1c1ncccn1)c1ccc(-n2cccn2)cc1` [Compound 2242]: the Ki is less than 20 nM.

Consider `C[C@@H](NC(=O)[C@H](O)[C@@H](O)C(=O)N1CCCC1(C)c1csc(N)n1)c1ccc(-n2cccn2)cc1` (stereo partly drawn) [Compound 2243], for which the inhibitory constant (Ki) was less than 20 nM.

`CNc1nc(C2(C)CCCN2C(=O)[C@H](O)[C@@H](O)C(=O)N[C@H](C)c2ccc(-n3cccn3)cc2)cs1` (stereo partly drawn) [Compound 2244]: the inhibition constant (Ki) was less than 20 nM.

With `CNc1nc([C@H]2C[C@H]3C[C@H]3N2C(=O)[C@H](O)[C@@H](O)C(=O)N[C@H](C)c2ccc(-n3cccn3)cc2)cs1` [Compound 2245], the Ki was less than 20 nM.

Regarding `CNc1nc([C@H]2C[C@@H]3C[C@@H]3N2C(=O)[C@H](O)[C@@H](O)C(=O)N[C@H](C)c2ccc(-n3cccn3)cc2)cs1` [Compound 2246], the inhibitory constant (Ki) lay in the range of 20 to 100 nM.

Take `C[C@@H](NC(=O)[C@H](O)[C@@H](O)C(=O)N1CCC[C@@H]1c1cc[nH]n1)c1ccc(-n2cccn2)cc1` [Compound 2247]: the Ki was less than 20 nM.

With `C[C@@H](NC(=O)[C@H](O)[C@@H](O)C(=O)N1CCC[C@@H]1c1ccn(C)n1)c1ccc(-n2cccn2)cc1` [Compound 2248], the Ki was less than 20 nM.

For the compound `CNc1nccc([C@H]2CCCN2C(=O)[C@H](O)[C@@H](O)C(=O)N[C@H](C)c2ccc(-n3cccn3)cc2)n1` [Compound 2249], the Ki was less than 20 nM.

As to `CNc1nc([C@H]2C=CCN2C(=O)[C@H](O)[C@@H](O)C(=O)N[C@H](C)c2ccc(-n3cccn3)cc2)cs1` [Compound 2250], the Ki was less than 20 nM.

Turning to `C[C@@H](NC(=O)[C@H](O)[C@@H](O)C(=O)N1CCCC1(C)c1nccs1)c1ccc(-n2cccn2)cc1` (stereo partly drawn) [Compound 2251], the Ki was less than 20 nM.

Regarding `CNc1nc([C@H]2CCCN2C(=O)[C@H](O)[C@@H](O)C(=O)N[C@H](C)c2ccc(-n3cccn3)cc2)cs1` [Compound 2252], the Ki is less than 20 nM.

In the case of `CNc1nc([C@H]2CCCN2C(=O)[C@H](O)[C@@H](O)C(=O)NCC2CCN(c3ccc(F)cc3C#N)CC2)cs1` [Compound 2253], the Ki was less than 20 nM.

With `C[C@@H](NC(=O)[C@H](O)[C@@H](O)C(=O)N1CC(C)(C)CC1(C)C)c1ccc(-n2cccn2)cc1` [Compound 2254], the Ki lay within 100 to 1000 nM.

For `C[C@@H](NC(=O)[C@H](O)[C@@H](O)C(=O)N1CCC[C@@H]1c1csc(N)n1)c1ccc(-n2cccn2)cc1` [Compound 2255], the Ki was less than 20 nM.

For the compound `CCNc1nc([C@H]2CCCN2C(=O)[C@H](O)[C@@H](O)C(=O)N[C@H](C)c2ccc(-n3cccn3)cc2)cs1` [Compound 2256], the Ki was less than 20 nM.

Regarding `CC(C)Nc1nc([C@H]2CCCN2C(=O)[C@H](O)[C@@H](O)C(=O)N[C@H](C)c2ccc(-n3cccn3)cc2)cs1` [Compound 2257], the Ki is less than 20 nM.

As for `C[C@@H](NC(=O)[C@H](O)[C@@H](O)C(=O)N1CCC[C@@H]1c1csc(N2CCCCC2)n1)c1ccc(-n2cccn2)cc1` [Compound 2258], the inhibitory constant (Ki) fell in the range of 20 to 100 nM.

As to `C[C@@H](NC(=O)[C@H](O)[C@@H](O)C(=O)N1CCC[C@@H]1c1csc(Nc2cccnc2)n1)c1ccc(-n2cccn2)cc1` [Compound 2259], the inhibition constant Ki was less than 20 nM.

In the case of `C[C@@H](NC(=O)[C@H](O)[C@@H](O)C(=O)N1CCC[C@@H]1c1csc(N(C)C)n1)c1ccc(-n2cccn2)cc1` [Compound 2260], the Ki fell in the range of 20 to 100 nM.

Regarding `CC(=O)N(C)c1nc([C@H]2CCCN2C(=O)[C@H](O)[C@@H](O)C(=O)N[C@H](C)c2ccc(-n3cccn3)cc2)cs1` [Compound 2261], the inhibition constant (Ki) is less than 20 nM.

For `C[C@@H](NC(=O)[C@H](O)[C@@H](O)C(=O)N1CC=C[C@H]1c1cccc(Cl)c1)c1ccc(-n2cccn2)cc1` [Compound 2263], the Ki fell in the range of 100 to 1000 nM.

`C[C@@H](NC(=O)[C@H](O)[C@@H](O)C(=O)N1CC=C[C@@H]1c1cccc(Cl)c1)c1ccc(-n2cccn2)cc1` [Compound 2264]: the Ki is less than 20 nM.

Consider `C[C@@H](NC(=O)[C@H](O)[C@@H](O)C(=O)N1C[C@H](O)C[C@H]1c1cccc(Cl)c1)c1ccc(-n2cccn2)cc1` [Compound 2265], for which the inhibitory constant (Ki) is less than 20 nM.

In the case of `C[C@@H](NC(=O)[C@H](O)[C@@H](O)C(=O)N1CC[C@H](O)[C@H]1c1cccc(Cl)c1)c1ccc(-n2cccn2)cc1` [Compound 2266], the inhibitory constant (Ki) was less than 20 nM.

With `C[C@@H](NC(=O)[C@H](O)[C@@H](O)C(=O)N1C[C@H](O)[C@H](O)[C@H]1c1cccc(Cl)c1)c1ccc(-n2cccn2)cc1` [Compound 2267], the Ki lay in the range of 100 to 1000 nM.

`CNc1nc([C@H]2CCCN2C(=O)[C@H](O)[C@@H](O)C(=O)N[C@H](C)c2ccc(-n3cccn3)cc2)c(C)s1` [Compound 2268]: the inhibition constant (Ki) is less than 20 nM.

With `CNc1nc([C@H]2CCCN2C(=O)[C@H](O)[C@@H](O)C(=O)N[C@H](C)c2ccc(-n3cccn3)cc2)c(C#N)s1` [Compound 2269], the Ki was less than 20 nM.

On to `CCNc1nc([C@H]2C[C@@H](C)CN2C(=O)[C@H](O)[C@@H](O)C(=O)N[C@H](C)c2ccc(-n3cccn3)cc2)cs1` [Compound 2271], for which the Ki was less than 20 nM.

With `C[C@@H](NC(=O)[C@H](O)[C@@H](O)C(=O)N1Cc2cccnc2C1)c1ccc(-n2cccn2)c(OCc2ccccc2)c1` [Compound 2304], the Ki is less than 20 nM.

For `C[C@@H](NC(=O)[C@H](O)[C@@H](O)C(=O)N1Cc2cccnc2C1)c1ccc(-n2cccn2)c(O)c1` [Compound 2305], the Ki was less than 20 nM.

As for `COc1cccc([C@@H](C)NC(=O)[C@H](O)[C@@H](O)C(=O)N2Cc3cccnc3C2)c1` [Compound 2306], the inhibitory constant (Ki) was greater than 1000 nM.

With `C[C@@H](NC(=O)[C@H](O)[C@@H](O)C(=O)N1Cc2cccnc2C1)c1cccc(O)c1` [Compound 2307], the Ki is greater than 1000 nM.

On to `C[C@@H](NC(=O)[C@H](O)[C@@H](O)C(=O)N1Cc2cccnc2C1)c1cccc(OCc2ccccc2)c1` [Compound 2308], for which the Ki was greater than 1000 nM.

With `CCOc1ncccc1-c1ccc(CNC(=O)[C@H](O)[C@@H](O)C(=O)N2CCC[C@@H]2c2cccc(Cl)c2)cc1` [Compound 2334], the inhibitory constant (Ki) was less than 20 nM.

On to `CCOc1ncccc1-c1ccc(CNC(=O)[C@H](O)[C@@H](O)C(=O)N2CCCC2)cc1` [Compound 2335], for which the inhibition constant (Ki) is 100 to 1000 nM.

Take `O=C(NCc1ccc(-c2ccc(F)cc2OCC(F)(F)F)cc1)[C@H](O)[C@@H](O)C(=O)N1CCCC1` [Compound 2337]: the inhibitory constant (Ki) was in the range of 20 to 100 nM.

As to `O=C(NCc1ccc(-c2ccccc2OCCC2CCCCC2)cc1)[C@H](O)[C@@H](O)C(=O)N1CCCC1` [Compound 2338], the Ki is less than 20 nM.

With `O=C(NCc1ccc(-c2ccccc2OCCC2CCCC2)cc1)[C@H](O)[C@@H](O)C(=O)N1CCCC1` [Compound 2339], the Ki fell in the range of 20 to 100 nM.

For `O=C(NCc1ccc(-c2ccccc2OCC2CCCC2)cc1)[C@H](O)[C@@H](O)C(=O)N1CCCC1` [Compound 2340], the inhibitory constant (Ki) fell in the range of 20 to 100 nM.

As to `O=C(NCc1ccc(-c2ccc(F)cc2OCCC2CCCCC2)cc1)[C@H](O)[C@@H](O)C(=O)N1CCCC1` [Compound 2342], the Ki lay in the range of 100 to 1000 nM.

As for `O=C(NCc1ccc(-c2ccccc2OCCN2CCOCC2)cc1)[C@H](O)[C@@H](O)C(=O)N1CCCC1` [Compound 2343], the Ki is greater than 1000 nM.

Regarding `COc1nc(CNC(=O)[C@H](O)[C@@H](O)C(=O)N2CCCC2)ccc1-c1ccccc1OC(F)(F)F` [Compound 2346], the inhibitory constant (Ki) was greater than 1000 nM.

For `O=C(NCc1ccc(-c2ccccc2OC(F)(F)F)c[n+]1[O-])[C@H](O)[C@@H](O)C(=O)N1CCCC1` [Compound 2347], the inhibition constant Ki is greater than 1000 nM.

With `O=C(NCc1ccc(-c2ccccc2OC(F)(F)F)c[n+]1[O-])[C@H](O)[C@@H](O)C(=O)N1Cc2ccccc2C1` [Compound 2348], the inhibition constant (Ki) was in the range of 100 to 1000 nM.

What is called Ki is the equilibrium dissociation constant of an inhibitor or competing ligand from its target.

Source of the values: patent US7652020B2, “Compounds for the treatment of inflammatory disorders” (Schering Corporation, priority 2004, dated 2010).
